Laboratory results as given in publication PMC3906007, “Discovery of a Small Molecule Agonist of Phosphatidylinositol 3-Kinase p110α That Reactivates Latent HIV-1” (PLoS ONE, 2014).

Assays:
PI3K p110δ RNA = assay: PI3K isoform RNA transcript levels in J89GFP cells, p110δ; format: cell-based; settings: 5 µM
[1] = test system: HIV-1 RNA expression in resting CD4+ T cells; settings: single 400 mg dose; 8 HIV-infected patients on suppressive cART; cited from earlier work
[2] = test system: latent HIV-1 in CD8+-depleted MNC; format: cell-based; settings: across all four donors; 0.5 or 2 µM
From the text: Healthy HIV-1 uninfected blood donors and HIV-1-infected donors on suppressive cART with plasma HIV-1 RNA less than 50 copies/mL for >2 year provided written informed consent and underwent a large volume phlebotomy (100–200 mLs). The protocol for blood donation was approved by the Institutional Review Board of the University of Pittsburgh (IRB #PRO10070203).
(§1) CD8+T-cells were depleted from whole blood using RosetteSep Human CD8 Depletion Cocktail (StemCell Technologies, Vancouver, BC) according to manufacturer's instructions. 2×10^6 CD4^+ MNC cells were seeded in triplicate per treatment in 48-well plates and allowed to rest overnight. […] Activation controls were treated with CD3/CD28 Dynabeads (Life Technologies, Grand Island, NY). After 7 days of incubation, supernatants from triplicate wells were pooled, centrifuged (500 g×5 min), and stored at −80°C. HIV-1 RNA levels in supernatants were determined using the COBAS® AmpliPrep/COBAS® TaqMan® HIV-1 Test, v2.0 (Roche, Indianapolis, IN).

[3] = Cytotoxicity (MTT or CellTiter 96), 293T; format: cell-based; settings: human, 293T cells; 24 hour incubation; mean ± SD, 3 replicates
Method: (§2) Following a 24 hour incubation period, cell viability was measured using either the MTT (Roche Applied Science, Indianapolis, IN) or CellTiter 96 proliferation (Promega, WI) assay.

[4] = Cytotoxicity (MTT or CellTiter 96), Jurkat; format: cell-based; settings: human, Jurkat cells; 24 hour incubation; mean ± SD, 3 replicates
Method: as §2

[5] = Cytotoxicity (MTT or CellTiter 96), HeLa; format: cell-based; settings: human, HeLa cells; 24 hour incubation; mean ± SD, 3 replicates
Method: as §2

[6] = Cytotoxicity (MTT or CellTiter 96), CD8+-depleted MNC; format: cell-based; settings: human, CD8+-depleted mononuclear cells (MNC) from whole blood; 24 hour incubation; mean of 2 replicates
Method: as §2
as §1, with “overnight. All wells were maintained in 81 nM efavirenz.” for “overnight.”

[7] = design: method as in PMID 20936324; settings: phase II clinical trial, ovarian cancer; cited from earlier work
[8] = test system: latent HIV-1 in J89GFP cells; assay: Latent HIV-1 reactivation in J89GFP cells (EGFP positive cells, flow cytometry); format: cell-based; settings: J89GFP
Method: Three different cell lines of HIV-1 latency were used in this study. These included J89GFP, U1 and ACH-2 cells. The J89GFP cells were a kind gift from Dr. David Levy. The ACH-2 and U1 cells were obtained through the AIDS Research and Reference Reagent Program, Division of AIDS, NIAID, NIH: Dr. Thomas Folks contributor [19]–[21]. Reactivation of latent HIV-1 in the J89GFP cells was measured by quantifying the percentage of EGFP positive cells using a BD FACScan flow cytometer with BD FACSDiva software (BD Biosciences, CA), as described previously. Reactivation of latent HIV-1 in the ACH-2 and U 1 cells was assessed by quantitative analysis of initiated and elongated HIV-1 transcripts, as described previously. All 3 cell lines were maintained in RMPI 1640 medium supplemented with 10% FBS, 0.3 mg/mL L-glutamine, 100 U/mL penicillin, and 100 µg/mL streptomycin at 37°C in humidified air with 5% CO2.
To identify novel activators of latent HIV-1 expression, we screened 640 pure natural products from the TimTec Natural Compound Library at a concentration of 10 ng/mL for 24 hrs in a Jurkat cell (J89GFP) model of latency for their cytotoxicity and ability to reactivate HIV-1 expression. J89GFP cells contain a stably integrated, full-length HIV-1 provirus with an enhanced GFP (EGFP) reporter incorporated into the viral genome. The viral genome in these cells is transcriptionally silent. However, upon stimulation viral transcription is activated and viral expression can be measured by EGFP production. […].

T cell = test system: T cell; design: method as in PMID 22732922; settings: cited from earlier work

SMILES: O=C(CCCCCCC(=O)Nc1ccccc1)NO [SAHA, vorinostat, reference compound]
- Effect on PI3K p110δ RNA transcript levels / gene expression (PI3K p110δ RNA): significantly up-regulate
- HIV-1 RNA expression in resting CD4+ T cells [1]: induced an increase in HIV-1 RNA expression
- Capacity to increase HIV-1 expression in the CD8+-depleted MNC [2]: very limited capacity
- CC50 at 24 h [3]: 14.1 ± 0.2 µM
- CC50 at 24 h [4]: 10 ± 0.1 µM
- CC50 at 24 h [5]: 11.3 ± 0.3 µM
- CC50 at 24 h [6]: 0.7 µM

SMILES: CCC/C=C/C=C/C(=O)O[C@H]1/C(=C/C(=O)OC)C[C@H]2C[C@H]([C@@H](C)O)OC(=O)C[C@H](O)C[C@@H]3C[C@H](OC(C)=O)C(C)(C)[C@](O)(C[C@@H]4C/C(=C/C(=O)OC)C[C@H](/C=C/C(C)(C)[C@]1(O)O2)O4)O3 [bryostatin]
- Adverse event in study participants [7]: severe myalgia in all study participants

SMILES: CC(=O)O[C@@]12C[C@@H](C)[C@@]3(O)[C@@H](C=C(CO)C[C@]4(O)C(=O)C(C)=C[C@@H]34)[C@@H]1C2(C)C [prostratin, reference compound]
- Latent HIV-1 reactivation activity in presence of PI3K inhibitor wortmannin ([8]; 20 nM wortmannin): remained unaffected
- Latent HIV-1 reactivation activity in presence of Akt Inhibitor IV ([8]; 500 nM Akt Inhibitor IV): remained unaffected
- Latent HIV-1 reactivation activity in presence of PKC inhibitor Gö6983 ([8]; 500 nM Go6983): attenuated
- Latent HIV-1 reactivation activity in presence of JNK inhibitor SP600125 ([8]; 1 µM SP00125): remained unaffected
- Latent HIV-1 reactivation activity in presence of NFAT/calcineurin inhibitor cyclosporin A ([8]; 1 µM cyclosporin A): remained unaffected
- Global T cell activation (T cell): induces global T cell activation
